The results in this text go back to publication PMC3062964, “Biomolecular Interaction Study of Cyclolinopeptide A with Human Serum Albumin” (Journal of Biomedicine and Biotechnology, 2011).

Usually Kd stands for the free concentration of one partner at which half of the binding sites on the other are occupied at equilibrium, for simple one-to-one binding. The low end stands for higher affinity, the high end for lower affinity.

One test deals with T1, HSA (Homo sapiens, UniProt P02768).
T1 construct: purchased Sigma (Oakville, ON)
Briefly: Far-UV circular dichroism, secondary structure of HSA upon CLP-A binding. The note with it: HSA 18 μM + CLP-A 50 μM, 10 mM PBS, 5% DMSO, pH 7.4, room temperature, far-UV CD, CDNN V2.1, 210–260 nm. The method, then:
CD measurements of HSA (18 μM), HSA/CLP-A (18 μM, 50 μM) in 10 mM PBS, 5% DMSO, pH = 7.4 buffer were made with a Pistar-180 CD spectrometer (Applied Photophysics Ltd., Leatherhead, UK) at room temperature. The far-UV region was scanned from 260–180 nm in 0.5 nm steps at a scan rate of 10 nm min^−1 and a bandwidth of 6 nm using a 0.010 cm optical pathlength quartz cuvette. The secondary structure was estimated using the neural network deconvolution software CDNN V2.1 [22]. The near-UV region was scanned from 350–250 nm in 0.5 nm steps at a scan rate of 10 nm min^−1, and a bandwidth of 2 nm using a 10 mm optical pathlength cuvette.
In order to assess if any conformational changes were present upon CLP-A complexation with HSA, we compared the far-UV and near-UV CD spectra of HSA and HSA/CLP-A in the running buffer used in the Biacore experiments shown in Figure 5. CD spectra taken in the far-UV spectral region provide insight to the secondary structure of a protein. […] This region of the spectra corresponds to signals from the phenylalanine, tyrosine, and tryptophan residues on the protein and it provides insight to changes in the tertiary structure of the protein.
(Circular dichroism is the unequal absorption of left and right circularly polarised light.)

The target in test [1] is T2, Human Serum Albumin (HSA, fatty acid free) (Homo sapiens, UniProt P02768).
T2 construct: purchased Sigma (Oakville, ON)
Briefly: SPR binding of CLP-A to immobilized HSA. Particulars: for Kd: Kd = 1/Ka, SPR; for Kd / Ka: 1X PBS pH 7.4, 5% DMSO; for Ka: SPR (BiacoreX, CM5 chip, HSA 9–11 kRU), CLP-A 50–200 μM injected in triplicate, dose-response fitted with rectangular hyperbola, global Rmax 2000, standard error of curve-fitting in brackets. The method, then: Running buffer for all experiments was prepared by diluting a 10X phosphate-buffered saline (PBS) stock solution (100 mM phosphate buffer, 20.7 mM KCl, 1370 mM NaCl, pH 6.7) to a 1X PBS, pH 7.4 solution containing 5% DMSO. Running buffers were filtered and degassed daily before use.
Analyte solutions containing the CLP-A peptides were prepared by diluting the stock solution (10 mM in DMSO) into 1.05X PBS, giving a final 1X PBS, pH 7.4 buffer containing 5% DMSO (same as the running buffer).
All SPR measurements were performed at different temperatures using a BiacoreX instrument equipped with a research-grade CM5 carboxylated-dextran sensor chip (Biacore). The fluidic unit of the instrument was cleaned prior to experiments using the DESORB method (injections of 0.5% sodium dodecyl sulphate, followed by 50 mM glycine, pH 9.5) equipped in the instrument's software. On some occasions a “SUPER-CLEAN” method was also used (injections of 1% CH3COOH, 1 M NaHCO3, 10 mM HCl, and 6 M GndHCl).
The carboxylated-dextran sensor chips were preconditioned prior to HSA immobilization by priming the instrument 3 times with HBS-EP buffer, followed by 3 successive 1 min injections of 50 mM NaOH at 50 μL min^−1. HSA was covalently immobilized onto a CM5 sensor surface at 25°C using standard amine-coupling chemistry. Flow cell 1 (Fc1) and flow cell 2 (Fc2) were activated by a 7 min injection of a 1 : 1 mixture of 0.1 M NHS and 0.4 M EDC using a flow rate of 5 μL min^−1. Immediately after activation, HSA (30 μg mL^−1, 10 mM acetate buffer pH 5.3) was immobilized onto Fc2. A 7 min injection of 1 M EA (pH 8.5) was conducted over Fc1 and Fc2 to deactivate the surfaces. The final HSA concentration immobilized onto the chip was 9–11 kRU.
CLP-A solutions (50–200 μM) were injected in triplicate and flowed over reference and HSA surfaces for 2 min at a flow rate of […], followed by a dissociation phase of 3 min for all experimental temperatures. At the end of the CLP-A injection, the flowing solution was switched to the running buffer until the response returned to the original baseline. Instances where the baseline was not readily achieved, a short pulse of 50% (v/v) DMSO solution was injected at high flow rate to remove any remaining CLP-A. Data were collected at a rate of 5 Hz and processed using the BiaEvaluation V4.2 software. The equilibrium constant, Ka, was determined using the rectangular hyperbola equation [20]:
(1) Req=Rmax Ka[CLP-A]/1+Ka[CLP-A], where Req, Rmax, [CLP-A] are the measured response values, the binding site saturation value, and the concentration of CLP-A, respectively. Curve-fitting was done with Microcal Origin V7.1 using a global Rmax value of 2000.
CLP-A concentration was limited to below 200 μM due to the solubility of the peptide in the buffer. The affinity of interaction was estimated by first assuming that HSA-binding sites were equally available and second that only high affinity sites were occupied in the working concentration range [24]. The Kd and Ka values indicate that affinity increases as the temperature increased. […] To further elucidate the HSA/CLP-A interaction, thermodynamic parameters are extracted using the van't Hoff equation (2) ln Kd=ΔH/R(1/T)−ΔS/R, where R = 8.314 J mol^−1 K^−1. This yields ΔH and ΔS for the interaction to be 204 kJ mol^−1 and 746 J mol^−1 K^−1 respectively. The binding is overall endothermic. This indicates an association with the hydrophobic pockets of HSA and the opening of binding sites. Moreover, DMSO has been used to assist the solubility. Therefore, the entire solvation complex consisting of CLP-A, DMSO and H2O requires energy to expose the binding site. This energy plus the binding energy for interaction in the hydrophobic pockets of HSA result in an overall endothermic process. The large entropy of the endothermic process clearly indicate that binding is entropy-driven. This is due to contribution from breaking of the solvation complex and hydrophobic binding.
(Surface plasmon resonance follows binding to a sensor surface in real time, without labels.)

Peptide text beside a SMILES is read from it.

T1 sequence (P02768 25-609): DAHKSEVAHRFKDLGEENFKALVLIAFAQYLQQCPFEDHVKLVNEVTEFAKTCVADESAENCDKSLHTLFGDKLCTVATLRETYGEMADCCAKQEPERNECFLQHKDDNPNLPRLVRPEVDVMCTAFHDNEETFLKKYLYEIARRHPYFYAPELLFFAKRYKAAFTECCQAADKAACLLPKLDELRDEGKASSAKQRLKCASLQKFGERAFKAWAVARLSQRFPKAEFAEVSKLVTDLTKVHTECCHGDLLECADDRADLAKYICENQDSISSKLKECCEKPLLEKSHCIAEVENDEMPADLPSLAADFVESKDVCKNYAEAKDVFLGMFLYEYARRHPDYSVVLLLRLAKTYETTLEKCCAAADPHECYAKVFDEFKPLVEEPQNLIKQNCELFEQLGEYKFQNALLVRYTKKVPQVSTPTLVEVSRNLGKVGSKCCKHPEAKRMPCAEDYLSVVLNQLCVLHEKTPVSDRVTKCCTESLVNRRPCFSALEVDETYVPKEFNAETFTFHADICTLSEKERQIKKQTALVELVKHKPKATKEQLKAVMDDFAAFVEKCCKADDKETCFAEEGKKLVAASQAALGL
T2 sequence (P02768 25-609): as above

With `CC[C@H](C)[C@@H]1NC(=O)[C@H](CC(C)C)NC(=O)[C@H](Cc2ccccc2)NC(=O)[C@H](Cc2ccccc2)NC(=O)[C@@H]2CCCN2C(=O)[C@@H]2CCCN2C(=O)[C@H](C(C)C)NC(=O)[C@H](CC(C)C)NC(=O)[C@H]([C@@H](C)CC)NC1=O` [CLP-A, Cyclolinopeptide A] (cyclo(FFLIILVPP)), the “Secondary structure of HSA/CLP-A: Parallel” value on HSA (HSA alone 6) is listed as 6%. Moreover, at HSA (HSA alone 8), the “Secondary structure of HSA/CLP-A: Antiparallel” value turned out to be 9%. The “Secondary structure of HSA/CLP-A: Beta-Turn” value on HSA (HSA alone 15) worked out at 16%. Besides, the “Secondary structure of HSA/CLP-A: Rndm. Coil” value at HSA (HSA alone 27) was 29%. Besides, the “Secondary structure of HSA/CLP-A: Helix” value at HSA (HSA alone 46) is 41%. The Kd was determined as 1320 µM in test [1] (20°C), 593 µM in test [1] (25°C), 142 µM in test [1] (30°C) and 20 µM in test [1] (37°C). Moreover, the Ka in test [1] (20°C) is 757 (33) M^−1; in test [1] (25°C), 1687 (20) M^−1; in test [1] (30°C) it was 7056 (36) M^−1; in test [1] (37°C), 50032 (1792) M^−1. In addition, the “recognition kinetics of binding to the HSA-binding site” value in test [1] (SPR sensorgrams, 50–200 μM, 20–37°C, gradual increase of response to steady state during injection) is “very slow recognition kinetics”.
